Values of other authors, collected in patent publication US20180311203A1, “LIQUID FORMULATION OF CABAZITAXEL” (EMCURE PHARMACEUTICALS LIMITED, priority 2015, published 2018).

## CO[C@H]1C(=O)[C@]2(C)[C@@H](OC)C[C@H]3OC[C@@]3(OC(C)=O)[C@H]2[C@H](OC(=O)c2ccccc2)[C@]2(O)C[C@H](OC(=O)[C@H](O)[C@@H](NC(=O)OC(C)(C)C)c3ccccc3)C(C)=C1C2(C)C [cabazitaxel, (2α,5β,7β, 10β,13a)-4-acetoxy-13-({(2R,3S)-3 [(tertbutoxycarbonyl)amino]-2-hydroxy-3-phenylpropanoyl}oxy)-1-hydroxy-7,10-dimethoxy-9-oxo-5,20-epoxytax-11-en-2-yl benzoate]
  solubility in water: about 8 pg per mL
